The record followed here is patent US20210300943A1, “OGA INHIBITOR COMPOUNDS” (Janssen Pharmaceutica NV, priority 2018, published 2021).

The first assay has as its target T1, recombinant human Meningioma Expressed Antigen 5 (MGEA5), also referred to as O-GlcNAcase (OGA) (Homo sapiens, UniProt O60502).
T1 construct: Full length OGA enzyme was purchased at OnGene (cat #TP322411); purchased OnGene (so in the source)
T1 sequence (O60502 1-916): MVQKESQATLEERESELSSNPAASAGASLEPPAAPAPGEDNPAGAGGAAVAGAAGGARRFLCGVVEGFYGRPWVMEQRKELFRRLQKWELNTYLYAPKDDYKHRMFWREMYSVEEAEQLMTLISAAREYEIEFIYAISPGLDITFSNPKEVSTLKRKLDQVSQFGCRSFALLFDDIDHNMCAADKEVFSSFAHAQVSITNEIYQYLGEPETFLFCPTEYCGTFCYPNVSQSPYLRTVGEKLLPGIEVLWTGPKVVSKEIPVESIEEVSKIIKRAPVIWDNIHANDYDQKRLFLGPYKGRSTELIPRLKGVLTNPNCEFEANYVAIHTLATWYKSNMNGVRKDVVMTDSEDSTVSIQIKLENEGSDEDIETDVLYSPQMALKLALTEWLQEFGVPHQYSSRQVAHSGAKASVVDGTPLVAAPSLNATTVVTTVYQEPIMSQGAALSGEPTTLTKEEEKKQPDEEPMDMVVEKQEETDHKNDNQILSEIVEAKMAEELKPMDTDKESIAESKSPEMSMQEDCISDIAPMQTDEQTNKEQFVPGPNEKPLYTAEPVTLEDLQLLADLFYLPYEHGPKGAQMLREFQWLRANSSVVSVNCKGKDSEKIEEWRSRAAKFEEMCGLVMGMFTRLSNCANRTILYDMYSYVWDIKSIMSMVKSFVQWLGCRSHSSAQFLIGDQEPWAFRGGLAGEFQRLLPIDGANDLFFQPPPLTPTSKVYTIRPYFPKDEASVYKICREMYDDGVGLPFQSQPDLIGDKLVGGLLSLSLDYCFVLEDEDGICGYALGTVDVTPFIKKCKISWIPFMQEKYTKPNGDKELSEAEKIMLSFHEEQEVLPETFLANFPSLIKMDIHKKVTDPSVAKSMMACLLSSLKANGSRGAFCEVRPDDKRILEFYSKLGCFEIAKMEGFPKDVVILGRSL
Description: OGA biochemical assay (inhibition of FM-GlcNAc hydrolysis, fluorescence). The settings on record: maximal effect. The source says: The assay is based on the inhibition of the hydrolysis of fluorescein mono-β-D-N-Acetyl-Glucosamine (FM-GlcNAc) (Mariappa et al. 2015, Biochem J 470:255) by the recombinant human Meningioma Expressed Antigen 5 (MGEA5), also referred to as O-GlcNAcase (OGA). The hydrolysis FM-GlcNAc (Marker Gene technologies, cat #M1485) results in the formation of β-D-N-glucosamineacetate and fluorescein. The fluorescence of the latter can be measured at excitation wavelength 485 nm and emission wavelength 538 nm. An increase in enzyme activity results in an increase in fluorescence signal. Full length OGA enzyme was purchased at OnGene (cat #TP322411). The enzyme was stored in 25 mM Tris.HCl, pH 7.3, 100 mM glycine, 10% glycerol at −20° C. Thiamet G and GlcNAcStatin were tested as reference compounds (Yuzwa et al. 2008 Nature Chemical Biology 4:483; Yuzwa et al. 2012 Nature Chemical Biology 8:393). The assay was performed in 200 mM Citrate/phosphate buffer supplemented with 0.005% Tween-20. 35.6 g Na2HPO42H2O (Sigma, #C0759) were dissolved in 1 L water to obtain a 200 mM solution. 19.2 g citric acid (Merck, #1.06580) was dissolved in 1 L water to obtain a 100 mM solution. pH of the sodiumphosphate solution was adjusted with the citric acid solution to 7.2. The buffer to stop the reaction consists of a 500 mM Carbonate buffer, pH 11.0. 734 mg FM-GlcNAc were dissolved in 5.48 mL DMSO to obtain a 250 mM solution and was stored at −20° C. OGA was used at a 2 nM concentration and FM-GlcNAc at a 100 uM final concentration. Dilutions were prepared in assay buffer.
50 nl of a compound dissolved in DMSO was dispensed on Black Proxiplate TM 384 Plus Assay plates (Perkin Elmer, #6008269) and 3 μl fl-OGA enzyme mix added subsequently. Plates were pre-incubated for 60 min at room temperature and then 2 μl FM-GlcNAc substrate mix added. […] Plates were briefly centrifuged for 1 min at 1000 rpm and incubate at room temperature for 6 h. To stop the reaction 5 μl STOP buffer were added and plates centrifuge again 1 min at 1000 rpm. Fluorescence was quantified in the Thermo Scientific Fluoroskan Ascent or the PerkinElmer EnVision with excitation wavelength 485 nm and emission wavelength 538 nm.
For analysis a best-fit curve is fitted by a minimum sum of squares method. From this an IC50 value and Hill coefficient was obtained. High control (no inhibitor) and low control (saturating concentrations of standard inhibitor) were used to define the minimum and maximum values.
As to `Cc1cc(NCC2CCCN(C(C)c3ccc4c(n3)OCCO4)C2)cc(C(F)(F)F)n1` (single isomer, unassigned) [Product 35], the “Enzymatic Emax (%)” value is reported as 88%.
On the same count and under the same terms, to `Cc1cc(NCC2CCCN(C(C)c3ccc4c(n3)OCCO4)C2)cc(C(F)(F)F)n1` (single isomer, unassigned) [Product 34] belongs 100%; to `Cc1cc(C[C@H]2CCCN(C(C)c3ccc4c(n3)OCC(=O)N4)C2)cc(C)n1` (single isomer, unassigned) [Product 60], 78%; to `COc1cc(NC[C@@H]2CCCN(C(C)c3ccc4c(n3)OCCO4)C2)cc(C)n1` (single isomer, unassigned) [Product 29], 97%.

Still in this assay, the particulars now being: maximal effect, read-out: Enzymatic Emax (%).
In the case of `Cc1cc(C[C@H]2CCCN(C(C)c3cc4c(cc3C)OCCO4)C2)cc(C)n1` (mixture of isomers) [Product 126], the Emax is 1%.
Same read-out and setting: the same measure for `Cc1cc(NCC2CCCN(C(C)c3cc4c(cc3F)OCCO4)C2)cc(C)n1` (stereo not drawn) [Product 37]: 102%.
Consider `Cc1cc(C[C@H]2CCCN([C@H](C)c3cc4c(cc3F)OCCO4)C2)cc(C)n1` (single isomer, unassigned) [Product 41], for which the Emax was 94%.
Same read-out and setting: to `Cc1cc(C[C@H]2CCCN([C@@H](C)c3cnc4c(c3)OCCO4)C2)cc(C)n1` (single isomer, unassigned) [Product 131] belongs 97%.
Still for that read-out and setting: the same measure for `Cc1cc([C@H]2CCCN([C@H](C)c3ccc4c(c3)OCC4)C2)cc(C)n1` [Product 3]: 97%; for `Cc1cc(O[C@@H]2CCCN([C@@H](C)c3cnc4c(c3)OCCN4)C2)cc(C(F)(F)F)n1` [Product 17]: 99%; for `Cc1cnc(C)c(C2CCCN(C(C)c3ccc4c(n3)OCCO4)C2)n1` (stereo not drawn) [Product 12]: 96%.
As to `Cc1cc([C@H]2CCCN([C@@H](C)c3cc4c(cc3F)OCCO4)C2)cc(C(F)(F)F)n1` (single isomer, unassigned) [Product 144], the Emax was determined as 99%.
Same read-out and setting: the same measure for `Cc1cc([C@@H]2CCCN([C@H](C)c3cc4c(cc3F)OCCO4)C2)cc(C(F)(F)F)n1` (single isomer, unassigned) [Product 141]: 98%.
Consider `Cc1cc([C@H]2CCCN([C@H](C)c3cc4c(cc3F)OCCO4)C2)cc(C(F)(F)F)n1` (single isomer, unassigned) [Product 142], for which the Emax was 52%.
The same measure, in the same setting: to `Cc1cc(C[C@H]2CCCN(Cc3cnc4c(c3)OCCN4C)C2)cc(C)n1` [Product 53] belongs 94%; to `COc1cc(NCC2CCCN(C(C)c3cc4c(cc3F)OCCO4)C2)cc(C)n1` (stereo not drawn) [Product 38], 102%.
Still for that read-out and setting: the same measure for `Cc1cc(C[C@H]2CCCN(Cc3cc4c(cc3C)OCCO4)C2)cc(C)n1` [Product 39]: 92%.

The same assay, now with this note: read-out: Enzymatic hOGA, pIC50 (converted).
Consider `Cc1cc(C[C@H]2CCCN(C(C)c3cc4c(cc3C)OCCO4)C2)cc(C)n1` (mixture of isomers) [Product 126], for which the IC50 was more than 10000 nM.
On to `Cc1cc(NCC2CCCN(C(C)c3cc4c(cc3F)OCCO4)C2)cc(C)n1` (stereo not drawn) [Product 37], for which the IC50 is 5.01 nM.
Still for that read-out and setting: to `Cc1cc(C[C@H]2CCCN([C@H](C)c3cc4c(cc3F)OCCO4)C2)cc(C)n1` (single isomer, unassigned) [Product 41] belongs 1000 nM.
`Cc1cc(NCC2CCCN(C(C)c3ccc4c(n3)OCCO4)C2)cc(C(F)(F)F)n1` (single isomer, unassigned) [Product 35]: the IC50 is 2510 nM.
For `Cc1cc(C[C@H]2CCCN([C@@H](C)c3cnc4c(c3)OCCO4)C2)cc(C)n1` (single isomer, unassigned) [Product 131], the IC50 was 501 nM.
Consider `Cc1cc([C@H]2CCCN([C@H](C)c3ccc4c(c3)OCC4)C2)cc(C)n1` [Product 3], for which the IC50 was 794 nM.
Still for that read-out and setting: the same measure for `Cc1cc(NCC2CCCN(C(C)c3ccc4c(n3)OCCO4)C2)cc(C(F)(F)F)n1` (single isomer, unassigned) [Product 34]: 200 nM.
Regarding `Cc1cc(O[C@@H]2CCCN([C@@H](C)c3cnc4c(c3)OCCN4)C2)cc(C(F)(F)F)n1` [Product 17], the IC50 was 79.4 nM.
As to `Cc1cnc(C)c(C2CCCN(C(C)c3ccc4c(n3)OCCO4)C2)n1` (stereo not drawn) [Product 12], the IC50 was 501 nM.
`Cc1cc([C@H]2CCCN([C@@H](C)c3cc4c(cc3F)OCCO4)C2)cc(C(F)(F)F)n1` (single isomer, unassigned) [Product 144]: the IC50 is 3.16 nM.
For the compound `Cc1cc([C@@H]2CCCN([C@H](C)c3cc4c(cc3F)OCCO4)C2)cc(C(F)(F)F)n1` (single isomer, unassigned) [Product 141], the IC50 was 501 nM.
Still for that read-out and setting: to `Cc1cc(C[C@H]2CCCN(Cc3cnc4c(c3)OCCN4C)C2)cc(C)n1` [Product 53] belongs 794 nM; to `COc1cc(NCC2CCCN(C(C)c3cc4c(cc3F)OCCO4)C2)cc(C)n1` (stereo not drawn) [Product 38], 6.31 nM; to `Cc1cc(C[C@H]2CCCN(Cc3cc4c(cc3C)OCCO4)C2)cc(C)n1` [Product 39], 794 nM.
The same measure, in the same setting: to `Cc1cc(C[C@H]2CCCN(C(C)c3ccc4c(n3)OCC(=O)N4)C2)cc(C)n1` (single isomer, unassigned) [Product 60] belongs 3160 nM; to `COc1cc(NC[C@@H]2CCCN(C(C)c3ccc4c(n3)OCCO4)C2)cc(C)n1` (single isomer, unassigned) [Product 29], 79.4 nM.

The Emax is the size of the effect at its maximum, as opposed to the concentration needed.
